Experimental data: PubChem BioAssay (NCI)
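Protocol summary: plate cells (96-well), add compound at 5 concentrations, incubate 48 h, interpolate endpoints linearly. GI50 is the concentration that inhibits growth by half. TGI denotes the concentration required for complete inhibition of growth.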

Tests used:
Test in all cases: NCI anticancer screen, dose series, 48 h
[1] = tested on: HT29 colon
[2] = tested on: PC-3 prostate
[3] = tested on: MCF7 breast
[4] = tested on: HCT-15 colon
[5] = tested on: IGROV1 ovarian
[6] = tested on: NCI/ADR-RES ovarian
[7] = tested on: EKVX NSCLC
[8] = tested on: MDA-MB-231 breast
[9] = tested on: SW-620 colon
[10] = tested on: U251 CNS
[11] = tested on: CAKI-1 renal
[12] = tested on: SF-539 CNS
[13] = tested on: HCC-2998 colon
[14] = tested on: LOX IMVI melanoma
[15] = tested on: COLO 205 colon
[16] = tested on: TK-10 renal
[17] = tested on: M14 melanoma
[18] = tested on: OVCAR-5 ovarian
[19] = tested on: 786-0 renal
[20] = tested on: HOP-92 NSCLC
[21] = tested on: K-562 leukemia
[22] = tested on: SN12C renal
[23] = tested on: NCI-H522 lung
[24] = tested on: UACC-62 melanoma
[25] = tested on: BT-549 breast
[26] = tested on: A549 NSCLC
[27] = tested on: SF-295 CNS
[28] = tested on: ACHN renal
[29] = tested on: OVCAR-4 ovarian
[30] = tested on: A498 renal
[31] = tested on: UACC-257 melanoma
[32] = tested on: MOLT-4 leukemia
[33] = tested on: SNB-19 CNS
[34] = tested on: HS 578T breast
[35] = tested on: UO-31 renal
[36] = tested on: OVCAR-3 ovarian
[37] = tested on: OVCAR-8 ovarian
[38] = tested on: CCRF-CEM leukemia
[39] = tested on: SR leukemia
[40] = tested on: SK-MEL-28 melanoma
[41] = tested on: HOP-62 NSCLC
[42] = tested on: NCI-H23 lung
[43] = tested on: RPMI-8226 leukemia
[44] = tested on: SK-MEL-5 melanoma
[45] = tested on: HL-60(TB) leukemia
[46] = tested on: NCI-H226 lung
[47] = tested on: MALME-3M melanoma
[48] = tested on: NCI-H460 lung
[49] = tested on: DU-145 prostate
[50] = tested on: SNB-75 CNS
[51] = tested on: KM12 colon
[52] = tested on: SK-MEL-2 melanoma
[53] = tested on: HCT-116 colon
[54] = tested on: SF-268 CNS

CCCOC(=O)N[C@H]1CCc2cc(OC)c(OC)c(OC)c2-c2ccc(SC)c(=O)cc21
GI50 [1]: < 0.01 µM | TGI [1]: > 39.4 µM | GI50 [2]: < 0.01 µM | TGI [2]: > 100 µM | GI50 [3]: < 0.01 µM | TGI [3]: > 100 µM | GI50 [4]: < 0.01 µM | TGI [4]: 12 µM | GI50 [5]: < 0.01 µM | TGI [5]: > 100 µM | GI50 [6]: 0.0268 µM | TGI [6]: > 100 µM | GI50 [7]: < 0.01 µM | TGI [7]: > 100 µM | GI50 [8]: < 0.01 µM | TGI [8]: 25.5 µM | GI50 [9]: < 0.01 µM | TGI [9]: 21.5 µM | GI50 [10]: < 0.01 µM | TGI [10]: > 34.1 µM | GI50 [11]: < 0.0201 µM | TGI [11]: 24.2 µM | GI50 [12]: < 0.01 µM | TGI [12]: 0.173 µM | GI50 [13]: < 0.01 µM | TGI [13]: 4.92 µM | GI50 [14]: < 0.01 µM | TGI [14]: > 42.4 µM | GI50 [15]: < 0.01 µM | TGI [15]: 0.0108 µM | GI50 [16]: 3.61 µM | TGI [16]: > 70.5 µM | GI50 [17]: < 0.01 µM | GI50 [18]: < 0.01 µM | TGI [18]: > 100 µM | GI50 [19]: < 0.01 µM | TGI [19]: > 100 µM | GI50 [20]: < 0.0182 µM | TGI [20]: 16.1 µM | GI50 [21]: < 0.01 µM | TGI [21]: 24.1 µM | GI50 [22]: < 0.01 µM | TGI [22]: > 100 µM | GI50 [23]: < 0.01 µM | TGI [23]: 7.25 µM | GI50 [24]: < 0.01 µM | TGI [24]: > 61.2 µM | GI50 [25]: < 0.01 µM | TGI [25]: 19.6 µM | GI50 [26]: < 0.01 µM | TGI [26]: > 100 µM | GI50 [27]: < 0.01 µM | TGI [27]: 6.77 µM | GI50 [28]: < 0.01 µM | TGI [28]: 15.7 µM | TGI [29]: > 71.5 µM | GI50 [30]: < 0.01 µM | GI50 [31]: 12.1 µM | TGI [31]: > 56.3 µM | GI50 [32]: < 0.01 µM | TGI [32]: 24.4 µM | GI50 [33]: < 0.01 µM | TGI [33]: > 100 µM | GI50 [34]: < 0.01 µM | TGI [34]: > 100 µM | TGI [35]: 42 µM | GI50 [36]: < 0.01 µM | TGI [36]: < 0.0238 µM | GI50 [37]: < 0.01 µM | TGI [37]: > 100 µM | GI50 [38]: < 0.01 µM | TGI [38]: 19.7 µM | GI50 [39]: < 0.01 µM | TGI [39]: > 56.3 µM | GI50 [40]: 10.1 µM | TGI [40]: > 68.1 µM | GI50 [41]: < 0.01 µM | TGI [41]: > 100 µM | GI50 [42]: < 0.01 µM | TGI [42]: > 100 µM | GI50 [43]: < 0.01 µM | TGI [43]: 8.22 µM | GI50 [44]: < 0.01 µM | TGI [44]: 0.018 µM | GI50 [45]: < 0.01 µM | TGI [45]: < 0.0129 µM | GI50 [46]: < 0.01 µM | TGI [46]: 10.6 µM | GI50 [47]: 0.0476 µM | TGI [47]: > 47.4 µM | GI50 [48]: < 0.01 µM | TGI [48]: 11.7 µM | GI50 [49]: < 0.01 µM | TGI [49]: > 100 µM | GI50 [50]: < 0.01 µM | TGI [50]: > 100 µM | GI50 [51]: < 0.01 µM | TGI [51]: > 38.6 µM | GI50 [52]: 0.463 µM | TGI [52]: 90.1 µM | GI50 [53]: < 0.01 µM | TGI [53]: 14.8 µM | GI50 [54]: < 0.01 µM | TGI [54]: > 54.1 µM
